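Dose response: 5 concentrations. Exposure: 48 h. Format: 96-well plates. Endpoint: linear interpolation; highest concentration if not reached. GI50 is the concentration that inhibits growth by half. TGI: total growth inhibition.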
Tests used:
Assay in all cases: NCI anticancer screen, dose series, 48 h
SN12C renal = tested on: SN12C renal
SR leukemia = tested on: SR leukemia
OVCAR-8 ovarian = tested on: OVCAR-8 ovarian
M14 melanoma = tested on: M14 melanoma
OVCAR-5 ovarian = tested on: OVCAR-5 ovarian
HOP-18 NSCLC = tested on: HOP-18 NSCLC
LXFL 529 NSCLC = tested on: LXFL 529 NSCLC
RPMI-8226 leukemia = tested on: RPMI-8226 leukemia
HCC-2998 colon = tested on: HCC-2998 colon
DLD-1 colon = tested on: DLD-1 colon
DMS 114 small cell lung = tested on: DMS 114 small cell lung
U251 CNS = tested on: U251 CNS
NCI-H460 lung = tested on: NCI-H460 lung
TK-10 renal = tested on: TK-10 renal
RXF 393 renal = tested on: RXF 393 renal
SK-MEL-2 melanoma = tested on: SK-MEL-2 melanoma
KM12 colon = tested on: KM12 colon
SK-MEL-5 melanoma = tested on: SK-MEL-5 melanoma
SNB-75 CNS = tested on: SNB-75 CNS
M19-MEL melanoma = tested on: M19-MEL melanoma
NCI-H522 lung = tested on: NCI-H522 lung
UACC-62 melanoma = tested on: UACC-62 melanoma
OVCAR-4 ovarian = tested on: OVCAR-4 ovarian
SNB-19 CNS = tested on: SNB-19 CNS
CAKI-1 renal = tested on: CAKI-1 renal
IGROV1 ovarian = tested on: IGROV1 ovarian
UO-31 renal = tested on: UO-31 renal
KM20L2 colon = tested on: KM20L2 colon
LOX IMVI melanoma = tested on: LOX IMVI melanoma
NCI-H226 lung = tested on: NCI-H226 lung
HCT-15 colon = tested on: HCT-15 colon
RXF-631 renal = tested on: RXF-631 renal
XF 498 CNS = tested on: XF 498 CNS
SF-295 CNS = tested on: SF-295 CNS
SW-620 colon = tested on: SW-620 colon
A549 NSCLC = tested on: A549 NSCLC
NCI-H23 lung = tested on: NCI-H23 lung
DMS 273 small cell lung = tested on: DMS 273 small cell lung
EKVX NSCLC = tested on: EKVX NSCLC
OVCAR-3 ovarian = tested on: OVCAR-3 ovarian
MALME-3M melanoma = tested on: MALME-3M melanoma
COLO 205 colon = tested on: COLO 205 colon
SF-539 CNS = tested on: SF-539 CNS
SK-MEL-28 melanoma = tested on: SK-MEL-28 melanoma
786-0 renal = tested on: 786-0 renal
HCT-116 colon = tested on: HCT-116 colon
SF-268 CNS = tested on: SF-268 CNS

With `CC(C)(C)N=Cc1ccccc1[O-].CC(C)(C)N=Cc1ccccc1[O-].[Co+2]` as the compound, how does the GI50 (SN12C renal) read?
The GI50 was greater than 100 µM.

And the TGI (SN12C renal)?
Its TGI is greater than 100 µM.

What about the GI50 (SR leukemia) of the same compound?
The GI50 was 6.3 µM.

What about the TGI (SR leukemia) of the same compound?
Its TGI is greater than 100 µM.

What about the GI50 (OVCAR-8 ovarian) of the same compound?
Its GI50 is 76.7 µM.

What about the TGI (OVCAR-8 ovarian) of the same compound?
Its TGI is greater than 100 µM.

What about the GI50 (M14 melanoma) of the same compound?
The GI50 was 30.2 µM.

What about the TGI (M14 melanoma) of the same compound?
The TGI was greater than 100 µM.

And the GI50 (OVCAR-5 ovarian)?
The GI50 was 3.31 µM.

What about the TGI (OVCAR-5 ovarian) of the same compound?
The TGI was greater than 100 µM.

And the GI50 (HOP-18 NSCLC)?
Its GI50 is 7.08 µM.

What about the TGI (HOP-18 NSCLC) of the same compound?
Its TGI is 83 µM.

And the GI50 (LXFL 529 NSCLC)?
Its GI50 is 83.9 µM.

And the TGI (LXFL 529 NSCLC)?
The TGI was greater than 100 µM.

And the GI50 (RPMI-8226 leukemia)?
The GI50 was 18 µM.

What about the TGI (RPMI-8226 leukemia) of the same compound?
The TGI was greater than 100 µM.

And the GI50 (HCC-2998 colon)?
The GI50 was greater than 100 µM.

What about the TGI (HCC-2998 colon) of the same compound?
Its TGI is greater than 100 µM.

What about the GI50 (DLD-1 colon) of the same compound?
The GI50 was 52.7 µM.

What about the TGI (DLD-1 colon) of the same compound?
The TGI was greater than 100 µM.

And the GI50 (DMS 114 small cell lung)?
Its GI50 is 26.1 µM.

And the TGI (DMS 114 small cell lung)?
The TGI was greater than 100 µM.

What about the GI50 (U251 CNS) of the same compound?
Its GI50 is 58.2 µM.

And the TGI (U251 CNS)?
The TGI was greater than 100 µM.

And the GI50 (NCI-H460 lung)?
Its GI50 is greater than 100 µM.

And the TGI (NCI-H460 lung)?
Its TGI is greater than 100 µM.

What about the GI50 (TK-10 renal) of the same compound?
The GI50 was 44.5 µM.

What about the TGI (TK-10 renal) of the same compound?
The TGI was greater than 100 µM.

What about the GI50 (RXF 393 renal) of the same compound?
Its GI50 is greater than 100 µM.

And the TGI (RXF 393 renal)?
Its TGI is greater than 100 µM.

And the GI50 (SK-MEL-2 melanoma)?
The GI50 was greater than 100 µM.

What about the TGI (SK-MEL-2 melanoma) of the same compound?
The TGI was greater than 100 µM.

What about the GI50 (KM12 colon) of the same compound?
The GI50 was greater than 100 µM.

And the TGI (KM12 colon)?
The TGI was greater than 100 µM.

What about the GI50 (SK-MEL-5 melanoma) of the same compound?
Its GI50 is 89.4 µM.

What about the TGI (SK-MEL-5 melanoma) of the same compound?
Its TGI is greater than 100 µM.

What about the GI50 (SNB-75 CNS) of the same compound?
Its GI50 is greater than 100 µM.

And the TGI (SNB-75 CNS)?
The TGI was greater than 100 µM.

What about the GI50 (M19-MEL melanoma) of the same compound?
Its GI50 is 54.4 µM.

What about the TGI (M19-MEL melanoma) of the same compound?
The TGI was greater than 100 µM.

And the GI50 (NCI-H522 lung)?
Its GI50 is 30.3 µM.

What about the TGI (NCI-H522 lung) of the same compound?
Its TGI is greater than 100 µM.

And the GI50 (UACC-62 melanoma)?
Its GI50 is 12.1 µM.

And the TGI (UACC-62 melanoma)?
Its TGI is greater than 100 µM.

And the GI50 (OVCAR-4 ovarian)?
The GI50 was 56.5 µM.

What about the TGI (OVCAR-4 ovarian) of the same compound?
The TGI was greater than 100 µM.

What about the GI50 (SNB-19 CNS) of the same compound?
Its GI50 is greater than 100 µM.

What about the TGI (SNB-19 CNS) of the same compound?
The TGI was greater than 100 µM.

And the GI50 (CAKI-1 renal)?
Its GI50 is 59.3 µM.

And the TGI (CAKI-1 renal)?
The TGI was greater than 100 µM.

And the GI50 (IGROV1 ovarian)?
The GI50 was 22.8 µM.

And the TGI (IGROV1 ovarian)?
Its TGI is greater than 100 µM.

What about the GI50 (UO-31 renal) of the same compound?
The GI50 was 18.8 µM.

And the TGI (UO-31 renal)?
Its TGI is greater than 100 µM.

And the GI50 (KM20L2 colon)?
Its GI50 is 72.8 µM.

And the TGI (KM20L2 colon)?
The TGI was greater than 100 µM.

And the GI50 (LOX IMVI melanoma)?
Its GI50 is greater than 100 µM.

What about the TGI (LOX IMVI melanoma) of the same compound?
The TGI was greater than 100 µM.

And the GI50 (NCI-H226 lung)?
The GI50 was 21.9 µM.

And the TGI (NCI-H226 lung)?
The TGI was greater than 100 µM.

What about the GI50 (HCT-15 colon) of the same compound?
The GI50 was greater than 100 µM.

What about the TGI (HCT-15 colon) of the same compound?
Its TGI is greater than 100 µM.

And the GI50 (RXF-631 renal)?
The GI50 was 23.2 µM.

And the TGI (RXF-631 renal)?
The TGI was greater than 100 µM.

What about the GI50 (XF 498 CNS) of the same compound?
The GI50 was greater than 100 µM.

What about the TGI (XF 498 CNS) of the same compound?
Its TGI is greater than 100 µM.

And the GI50 (SF-295 CNS)?
Its GI50 is greater than 100 µM.

And the TGI (SF-295 CNS)?
Its TGI is greater than 100 µM.

And the GI50 (SW-620 colon)?
Its GI50 is 70.3 µM.

And the TGI (SW-620 colon)?
The TGI was greater than 100 µM.

And the GI50 (A549 NSCLC)?
Its GI50 is greater than 100 µM.

And the TGI (A549 NSCLC)?
The TGI was greater than 100 µM.

And the GI50 (NCI-H23 lung)?
Its GI50 is 8.39 µM.

What about the TGI (NCI-H23 lung) of the same compound?
The TGI was greater than 100 µM.

And the GI50 (DMS 273 small cell lung)?
The GI50 was 37.2 µM.

And the TGI (DMS 273 small cell lung)?
Its TGI is greater than 100 µM.

And the GI50 (EKVX NSCLC)?
The GI50 was 60.7 µM.

And the TGI (EKVX NSCLC)?
Its TGI is greater than 100 µM.

And the GI50 (OVCAR-3 ovarian)?
The GI50 was 17.4 µM.

And the TGI (OVCAR-3 ovarian)?
The TGI was greater than 100 µM.

And the GI50 (MALME-3M melanoma)?
The GI50 was 93.5 µM.

What about the TGI (MALME-3M melanoma) of the same compound?
Its TGI is greater than 100 µM.

And the GI50 (COLO 205 colon)?
The GI50 was 45.3 µM.

And the TGI (COLO 205 colon)?
The TGI was greater than 100 µM.

What about the GI50 (SF-539 CNS) of the same compound?
The GI50 was greater than 100 µM.

And the TGI (SF-539 CNS)?
Its TGI is greater than 100 µM.

And the GI50 (SK-MEL-28 melanoma)?
Its GI50 is 55.8 µM.

And the TGI (SK-MEL-28 melanoma)?
The TGI was greater than 100 µM.

And the GI50 (786-0 renal)?
Its GI50 is 72.4 µM.

What about the TGI (786-0 renal) of the same compound?
Its TGI is greater than 100 µM.

And the GI50 (HCT-116 colon)?
Its GI50 is 80.4 µM.

And the TGI (HCT-116 colon)?
The TGI was greater than 100 µM.

What about the GI50 (SF-268 CNS) of the same compound?
Its GI50 is 60.7 µM.

And the TGI (SF-268 CNS)?
Its TGI is greater than 100 µM.

Source: PubChem BioAssay (NCI)
